For 17 molecules, IC50 and VLB/OV3 results are on record in US5593970A, “Heterocyclic anthracycline analogs” (priority 1994, dated 1997).

Structures can show the parent of a compound that is named as a salt. Where two headings read alike, the source gives them in different places.

The term IC50 denotes the concentration that inhibits the measured activity by half.

What all share (experiment): Microculture tetrazolium assay
Assay type in all cases: cell-based

One experiment has as its system T47D. To be noted: Homo sapiens.
In a further experiment the test system is HT29. To be noted: Homo sapiens, HT-29, HT29.
The subject of the next experiment is SKVLB. The conditions noted are these: for VLB/OV3: IC50 ratio SKVLB/SKOV3; for IC50: SKVLB.
In a further experiment the test system is SKOV3. To be noted: Homo sapiens, SK-OV-3, SKOV3.
In the next experiment the test system is LOX.

Turning to `C[C@@H]1O[C@@H](O[C@H]2O[C@H](COc3ccccc3)CC3=C2C(=O)c2cc4ccccc4c(O)c2C3=O)C[C@H](NC(=O)C(F)(F)F)[C@@H]1O` (mixture of isomers) [BCH-2048, (1'S,1R,3S) and (1'S,1S,3R)-5,12-dioxo-6-hydroxy-3-phenyloxymethyl-1-(2',3',6'-trideoxy-3'-trifluoroacetamido-L-lyxohexopyranose)-3,4,5,12-tetrahydroanthraceno-[2,3-c]-pyran], the IC50 in the experiment with T47D (read-out: IC50) was determined as 5720 nM; in the experiment with HT29 (read-out: IC50), 6380 nM; in the experiment on SKVLB (read-out: IC50), 10300 nM; in the experiment with SKOV3 (read-out: IC50) it was 4360 nM; in the experiment with LOX (read-out: IC50), 1770 nM. The VLB/OV3 with SKVLB worked out at 2.36.

Take `C[C@@H]1O[C@@H](OC2OC(C#N)Cc3c(O)c4c(c(O)c32)C(=O)c2ccccc2C4=O)C[C@H](NC(=O)C(F)(F)F)[C@@H]1O` (mixture of isomers) [BCH-2055, (1'S,1R,3S) and (1'S,1S,3R)(5,12-Dihydroxy-1-(2',3',6'-trideoxy-3'-trifluoroacetamido-4'-hydroxy-L-lyxohexopyranose)-6,11-dioxo-3,4,5,12-tetrahydroanthraceno-[2,3-c]pyran-3-yl)nitrile]: the half-maximal inhibitory concentration (IC50) was determined as 3510 nM in the experiment on T47D; 471 nM with HT29 (read-out: IC50); 2560 nM in the experiment with SKVLB (read-out: IC50); 898 nM with SKOV3 (read-out: IC50); 1130 nM in the experiment with LOX (read-out: IC50). Besides, the VLB/OV3 in the experiment with SKVLB was found to be 2.85.

In the case of `C[C@@H]1O[C@@H](OC2OC(C#N)Cc3c(O)c4c(c(O)c32)C(=O)c2ccccc2C4=O)C[C@H](N)[C@@H]1O` (mixture of isomers) [BCH-2056, (1'S,1R,3S) and (1'S,1S,3R)(5,12-Dihydroxy-1-(2',3',6'-trideoxy-3'-amino-4'-hydroxy-L-lyxohexopyranose)-6,11-dioxo-3,4,5,12-tetrahydroanthraceno-[2,3-c]pyran-3-yl)nitrile], the IC50 came to 271 nM with T47D (read-out: IC50); 83.2 nM in the experiment with HT29 (read-out: IC50); 598 nM in the experiment on SKVLB (read-out: IC50); 171 nM in the experiment with SKOV3 (read-out: IC50); 170 nM in the experiment on LOX (read-out: IC50). Moreover, in the experiment with SKVLB, the VLB/OV3 is 3.50.

As to `C[C@@H]1O[C@@H](O[C@H]2O[C@H](COc3ccccc3)Cc3c(O)c4c(c(O)c32)C(=O)c2ccccc2C4=O)C[C@H](N)[C@@H]1O` (mixture of isomers) [BCH-2058, (1'S,1R,3S) and (1'S,1S,3R)-5,12-dihydroxy-3-phenyloxymethyl-1-(2',3',6'-trideoxy-3'-amino-L-lyxohexopyranose)-1,2,3,4-tetrahydro-(2-oxygen)-naphthacene-6,11-dione-hydrochloride], the half-maximal inhibitory concentration (IC50) is 490 nM in the experiment on T47D (read-out: IC50); 163 nM in the experiment with HT29 (read-out: IC50); 407 nM in the experiment on SKVLB (read-out: IC50); 392 nM in the experiment on SKOV3 (read-out: IC50); 226 nM in the experiment with LOX (read-out: IC50). Further, the VLB/OV3 in the experiment on SKVLB was determined as 1.04.

`C[C@@H]1O[C@@H](O[C@@H]2O[C@@H](COc3ccccc3)Cc3c(O)c4c(c(O)c32)C(=O)c2ccccc2C4=O)C[C@H](N)[C@@H]1O` (mixture of isomers) [BCH-2059, (1'S,1R,3S) and (1'S,1S,3R)-5,12-dihydroxy-3-phenyloxymethyl-1-(2',3',6'-trideoxy-3'-amino-L-lyxohexopyranose)-1,2,3,4-tetrahydro-(2-oxygen)-naphthacene-6,11-dione-hydrochloride]: the half-maximal inhibitory concentration (IC50) was 442 nM in the experiment with T47D (read-out: IC50); 156 nM in the experiment on HT29 (read-out: IC50); 306 nM with SKVLB (read-out: IC50); 247 nM in the experiment on SKOV3 (read-out: IC50); 209 nM in the experiment on LOX (read-out: IC50). Besides, in the experiment on SKVLB, the VLB/OV3 worked out at 1.24.

Regarding `CC[C@@H]1CO[C@@H](O[C@H]2C[C@H](NC(=O)C(F)(F)F)[C@H](O)[C@H](C)O2)C2=C1C(=O)c1c(cc3ccccc3c1O)C2=O` (mixture of isomers) [BCH-2084, (1'S, 1S,4S) and (1'S,1R,4R)-5,12-dioxo-4-ethyl-6-hydroxy-1-(2',3',6'-trideoxy-3'-trifluoroacetamido-L-lyxohexopyranose)-3,4,5,12-tetrahydroanthraceno-[2,3-c]-pyran], the half-inhibitory concentration (IC50) in the experiment on T47D (read-out: IC50) was 5600 nM; in the experiment with HT29 (read-out: IC50) it was 5800 nM; in the experiment on SKVLB (read-out: IC50), 12000 nM; in the experiment on SKOV3 (read-out: IC50) it was 4200 nM; in the experiment on LOX (read-out: IC50), 5200 nM.

Regarding `CC[C@H]1CO[C@H](O[C@H]2C[C@H](N)[C@H](O)[C@H](C)O2)c2c(O)c3c(c(O)c21)C(=O)c1ccccc1C3=O` (mixture of isomers) [BCH-2085, (1'S,1S,4S) and (1'S,1R,4R)-5,12-dihydroxy-4-ethyl-1-(2',3',6'-trideoxy-3'-amino-L-lyxohexopyranose)-1,2,3,4-tetrahydro-(2-oxygen)-naphthacene-6,11-dione-hydrochloride], the IC50 in the experiment with T47D (read-out: IC50) worked out at 1600 nM; in the experiment with HT29 (read-out: IC50), 800 nM; in the experiment on SKVLB (read-out: IC50), 3400 nM; in the experiment with SKOV3 (read-out: IC50) it was 1100 nM; with LOX (read-out: IC50), 580 nM.

For `CC(=O)CC1CC2=C(C(=O)c3cc4ccccc4c(O)c3C2=O)C(O[C@H]2C[C@H](NC(=O)C(F)(F)F)[C@H](O)[C@H](C)O2)O1` (mixture of isomers) [BCH-2097, (1'S,1R,3S) and (1'S,1S,3R)(6-hydroxy-1-(2',3',6'-trideoxy-3'-trifluoroacetamido-4'-hydroxy-L-lyxohexopyranose)-5,12-dioxo-3,4,5,12-tetrahydroanthraceno[2,3-c]pyran-3-yl)propanone], the IC50 came to 4450 nM in the experiment on T47D (read-out: IC50); 2640 nM in the experiment on HT29 (read-out: IC50); 5360 nM in the experiment with SKVLB (read-out: IC50); 6060 nM in the experiment with SKOV3 (read-out: IC50); 2510 nM in the experiment on LOX (read-out: IC50). For the same molecule, the VLB/OV3 with SKVLB was determined as 0.88.

In the case of `CC(C)C(=O)C1Cc2c(O)c3c(c(O)c2C(O[C@H]2C[C@H](N)[C@H](O)[C@H](C)O2)O1)C(=O)c1ccccc1C3=O` (mixture of isomers) [BCH-2120, (1'S, 1R,3S) and (1'S, 1S ,3R)-isopropyl-[5,12-dihydroxy-6,11-dioxo-1-(2',3',6'-trideoxy-3'-amino-L-lyxohexopyranose)-3,4,6,11-tetrahydroanthraceno-[2,3-c]-pyran-3-yl]-ketone hydrochloride], the half-maximal inhibitory concentration (IC50) was found to be 314 nM with T47D (read-out: IC50); 168 nM in the experiment on HT29 (read-out: IC50); 398 nM in the experiment with SKVLB (read-out: IC50); 432 nM with SKOV3 (read-out: IC50); 143 nM in the experiment with LOX (read-out: IC50). For the same molecule, the VLB/OV3 in the experiment with SKVLB came to 0.92.

As to `C[C@@H]1O[C@@H](OC2OC(CC(=O)C3CC3)CC3=C2C(=O)c2cc4ccccc4c(O)c2C3=O)C[C@H](NC(=O)C(F)(F)F)C1O` (mixture of isomers) [BCH-2133, (1'S,1S,3R) and (1'S,1R,3S)-cyclopropyl-(6-hydroxy-1-((2',3',6'-trideoxy-3'-trifluoroacetamido-4'-hydroxy-L-arabino-hexopyranose)-5,10-dioxo-3,4,5,12-tetrahydronaphto-[2,3-c]pyran-3-yl)methylene)], the IC50 stood at 3620 nM in the experiment on T47D (read-out: IC50); 3680 nM in the experiment on HT29 (read-out: IC50); 1600 nM in the experiment with SKVLB (read-out: IC50); 7020 nM in the experiment with SKOV3 (read-out: IC50); 2490 nM in the experiment on LOX (read-out: IC50). The VLB/OV3 with SKVLB turned out to be 0.23.

Regarding `COC(=O)[C@@H]1CC2=C(C(=O)c3c(cc4ccccc4c3O)C2=O)[C@@H](O)O1` (relative stereo) [BCH-703, Methyl(1,11-dihydroxy-5,12-dioxo-3,4,5,12-tetrahydroanthraceno[2,3-c]pyran-3-yl)formate], the 50% inhibitory concentration (IC50) was determined as 16400 nM with T47D (read-out: IC50); 7380 nM in the experiment with HT29 (read-out: IC50); 18500 nM with SKVLB (read-out: IC50); 24800 nM in the experiment on SKOV3 (read-out: IC50); 12800 nM in the experiment on LOX (read-out: IC50). In the experiment with SKVLB, the VLB/OV3 came to 0.75.

As to `CC(=O)[C@@H]1CC2=C(C(=O)c3c(cc4ccccc4c3O)C2=O)[C@@H](O)O1` (relative stereo) [BCH-722], the IC50 in the experiment on T47D (read-out: IC50) turned out to be 12000 nM; in the experiment with HT29 (read-out: IC50), 7110 nM; in the experiment on SKVLB (read-out: IC50), 83000 nM; with SKOV3 (read-out: IC50), 19200 nM; with LOX (read-out: IC50), 43700 nM. For the same molecule, in the experiment on SKVLB, the VLB/OV3 was determined as 4.32.

Consider `CO[C@H]1S[C@H](CO)CC2=C1C(=O)c1cc3ccccc3c(O)c1C2=O` (relative stereo) [BCH-725], for which the IC50 amounted to 4570 nM in the experiment with T47D (read-out: IC50); 2490 nM with HT29 (read-out: IC50); 3990 nM in the experiment with SKVLB (read-out: IC50); 3460 nM in the experiment with SKOV3 (read-out: IC50); 1930 nM with LOX (read-out: IC50). Also, the VLB/OV3 in the experiment with SKVLB was 1.15.

Regarding `CC[C@@H]1CC2=C(C(=O)c3cc4ccccc4c(O)c3C2=O)[C@@H](O)O1` (relative stereo) [BCH-1162, (trans)-1,6-Dihydroxy-3-ethyl-1,2,3,4-tetrahydro-(2-oxygen) naphtacene-5,12-dione], the IC50 with T47D (read-out: IC50) is 2570 nM; in the experiment with HT29 (read-out: IC50), 4170 nM; in the experiment on SKVLB (read-out: IC50), 2700 nM; in the experiment on SKOV3 (read-out: IC50), 1160 nM; in the experiment on LOX (read-out: IC50), greater than 100000 nM. Further, the VLB/OV3 in the experiment with SKVLB is 2.33.

With `CO[C@H]1S[C@H](C(C)=O)CC2=C1C(=O)c1cc3ccccc3c(O)c1C2=O` (relative stereo) [BCH-1164, Trans-3-aceto-1-methoxy-6-hydroxy-1,2,3,4,5,12-hexahydro-2-(sulfur)naphthacene-5,12-dione], the IC50 with T47D (read-out: IC50) was 12200 nM; with HT29, 6970 nM; with SKVLB (read-out: IC50), 9200 nM; in the experiment on SKOV3 (read-out: IC50), 9360 nM; in the experiment on LOX (read-out: IC50), greater than 100000 nM. In the experiment with SKVLB, the VLB/OV3 was determined as 0.98.

Regarding `CC[C@@H]1Cc2c(O)c3c(c(O)c2[C@@H](O)O1)C(=O)c1ccccc1C3=O` (relative stereo) [BCH-1174, (trans)-6,11-dioxo-3-ethyl-1,5,12-trihydroxy-3,4,5,12-tetrahydroanthraceno-[2,3-c]-pyran], the IC50 with T47D (read-out: IC50), in the experiment on HT29 (read-out: IC50), in the experiment on SKVLB (read-out: IC50), in the experiment on SKOV3 (read-out: IC50) and in the experiment on LOX (read-out: IC50) was greater than 100000 nM throughout.

In the case of `CO[C@H]1O[C@H](C(=O)CP(=O)(OC)OC)CC2=C1C(=O)c1cc3ccccc3c(O)c1C2=O` (relative stereo) [BCH-1650], the IC50 amounted to 2440 nM in the experiment with T47D; 629 nM with HT29; 895 nM with SKVLB; 802 nM in the experiment on SKOV3; 755 nM with LOX. Besides, the VLB/OV3 in the experiment with SKVLB amounted to 1.12.
